# Columns and labels:
# [1] = Pharmacokinetic study after oral administration of AGN root extract powder in healthy Korean subjects; assay type: in vivo, human; settings: mean ± SE, n = 10; for CL/F / Vd/F: humans; for CL/F / Vd/F / AUC(0-inf) / Tmax / half-life: single usual oral dose of 4.6 g AGN root extract powder; for CL/F: dose of each coumarin / AUC0–∞; for Vd/F / Cmax / AUC(0-inf) / Tmax / half-life: male; for Vd/F: human, plasma; for Cmax / AUC(0-inf) / Tmax / half-life: human plasma; for Cmax: single usual oral dose of 4.6 g AGN root extract powder (0.055 mg D, 0.184 mg DA, 1.095 mg nodakenin)
# Protocol: Ten healthy male subjects (Korean, 23–25 years, weight of 56.7–86.2 kg, and height of 159.8–188.0 cm) were included for this clinical trial. These subjects were in good health condition prior to this study based on a physical examination, medical history, and laboratory tests. Clinical trial protocol was approved by the Institutional Review Board of Wonkwang Oriental Medicine Hospital, Gwangju, Korea (https://cris.nih.go.kr, no. KCT0001118). This clinical trial was carried out in accordance with the revised Declaration of Helsinki for biomedical research involving human subjects and Guideline for Good Clinical Practice.
# All subjects fasted for at least 10 h before drug administration. They continued the fasting for another 4 h. These subjects abstained from consuming alcohol or xanthine-containing foods, or beverages during the study. A usual oral dose of AGN root extract powder was given to each subject with 240 mL of spring water. The usual dose approved by the MFDS was of 4.6 g. It contained 0.055 mg of D, 0.184 mg of DA, and 1.095 mg of nodakenin. Blood samples were taken from the forearm vein before and at 0.25, 0.5, 0.75, 1, 2, 3, 4, 6, 8, 12, and 24 h after oral administration. Samples were transferred to Vacutainer® (10 mL, Becton Dickinson and Company, NJ, USA) tubes and immediately centrifuged (10,000× g, 10 min, 4 °C) to obtain plasma samples. Obtained plasma samples were transferred to polyethylene tubes and stored at −80 °C until analysis.
# Plasma concentration–time data were analyzed with non-compartmental method using WinNonlin® software (version 7.0, Pharsight®, Certara™ Company, Princeton, NJ, USA) to obtain pharmacokinetic parameters. The area under the plasma concentration–time curve from zero to time infinity (AUC0–∞) was calculated as AUC0–t + Ct/k, where Ct is was the last measurable concentration. AUC0–t was calculated by linear trapezoidal rule from zero to the last measurable time point. Oral clearance (CL/F) was calculated as dose of each coumarin divided by AUC0–∞, where F was oral bioavailability. The t1/2 was calculated as 0.693/k, where k was terminal rate constant. All results are expressed as mean value ± standard error (mean ± SE, n = 10).
# [2] = Stability in human plasma under various storage conditions (QC samples); assay type: in vitro ADME; settings: in % (unit assumed); for Stability, Processed Sample (10 °C in Auto Sampler for 24 h): extracted human plasma sample; for Stability, Processed Sample (10 °C in Auto Sampler for 24 h) / Stability, Long-Term (−80 °C for 30 Days) / Stability, Bench-Top (8 h at Room Temperature) / Stability, Freeze-Thaw (3 Cycles): mean ± SD, n = 5; for Stability, Long-Term (−80 °C for 30 Days) / Stability, Bench-Top (8 h at Room Temperature) / Stability, Freeze-Thaw (3 Cycles) / Stability mean values (range over all storage conditions and concentrations): human plasma; for Stability, Bench-Top (8 h at Room Temperature): measured vs initial value; for Stability, Freeze-Thaw (3 Cycles): −80 °C and room temperature; for Stability mean values (range over all storage conditions and concentrations): bench-top, processed sample, freeze-thaw, long-term, low and high QC
# Protocol: Bench-top stability test was conducted by using unextracted QC samples at room temperature for 8 h. Processed sample stability test was carried out by analyzing extracted samples in an auto sampler at 10 °C for 24 h. Freeze–thaw stability was estimated after three frozen and thawing cycles at −80 °C and room temperature on consecutive days. Long-term stability was examined after storing samples at −80 °C for a month. Stability of each coumarin was estimated by comparing the initial value with measured value after the examination (n = 5). The sample was considered stable if each value was less than 15% and all value of data expressed as mean ± standard deviation (mean ± SD).
# [3] = Published PK study of AGN-based dietary supplement Cogni Q after oral administration in humans; assay type: in vivo, human; settings: Cogni Q (ref 23) vs 4.6 g AGN root extract powder
# Protocol: PK study of the four coumarins has been reported in several studies. However, presented PK parameters are inconsistent with each other. Of these studies, only one paper has reported a PK study for D, DA, and DOH after oral administration in humans (male, n = 10) for AGN-based dietary supplement Cogni Q (119 mg D and 77 mg DA from four vegicaps). […] Such discrepancies in PK parameters between that study and the current study might be due to differences in dosage and the influence of excipients from different formulations. PKs of nodakenin in humans have not been reported previously.
SMILES,CL/F [1] [L/h],Vd/F [1] [L],Cmax [1] [ng/mL],AUC(0-inf) [1] [ng·h/mL],Tmax [1] [h],half-life [1] [h],"Stability, Processed Sample (10 °C in Auto Sampler for 24 h) ([2]; nominal conc. 0.15 ng/mL)","Stability, Processed Sample (10 °C in Auto Sampler for 24 h) ([2]; nominal conc. 40 ng/mL)","Stability, Long-Term (−80 °C for 30 Days) ([2]; nominal conc. 0.15 ng/mL)","Stability, Bench-Top (8 h at Room Temperature) ([2]; nominal conc. 0.15 ng/mL)","Stability, Freeze-Thaw (3 Cycles) ([2]; nominal conc. 0.15 ng/mL)","Stability, Long-Term (−80 °C for 30 Days) ([2]; nominal conc. 40 ng/mL)","Stability, Bench-Top (8 h at Room Temperature) ([2]; nominal conc. 40 ng/mL)","Stability, Freeze-Thaw (3 Cycles) ([2]; nominal conc. 40 ng/mL)",Stability mean values (range over all storage conditions and concentrations) [2],t1/2 of published study relative to t1/2 of this study (times longer) [3]
"CC(C)(O[C@@H]1O[C@H](CO)[C@@H](O)[C@H](O)[C@H]1O)[C@H]1Cc2cc3ccc(=O)oc3cc2O1 [Nodakenin, nodakenin]",622.29 ± 159.24,2800 ± 420,0.95 ± 0.17,3.11 ± 0.8,0.67 ± 0.04,6.28 ± 2.47,107.70 ± 9.77,103.17 ± 10.19,111.62 ± 8.13,101.43 ± 7.53,103.49 ± 8.40,101.90 ± 9.83,107.91 ± 6.81,104.79 ± 12.76,101.43–111.62,
"CC1(C)Oc2cc3oc(=O)ccc3cc2C[C@@H]1O [DOH, decursinol]",,,0.92 ± 0.16,2.43 ± 0.45,0.64 ± 0.06,2.62 ± 0.5,102.43 ± 5.27,104.77 ± 2.48,87.35 ± 9.60,89.75 ± 11.39,92.06 ± 2.28,106.93 ± 11.89,101.81 ± 7.72,104.29 ± 9.30,87.35–106.93,~2.5 times
"CC(C)=CC(=O)O[C@H]1Cc2cc3ccc(=O)oc3cc2OC1(C)C [D, decursin]",3.11 ± 0.42,11.9 ± 1.5,11.9 ± 1.43,22.3 ± 5.04,0.44 ± 0.05,3.03 ± 0.52,100.34 ± 9.38,108.94 ± 11.50,105.00 ± 9.02,101.91 ± 3.91,96.54 ± 10.95,102.26 ± 10.17,108.71 ± 14.16,102.80 ± 12.88,96.54–108.94,about 5.84 times
"C/C=C(/C)C(=O)O[C@H]1Cc2cc3ccc(=O)oc3cc2OC1(C)C [DA, decursinol angelate]",12.00 ± 1.97,60 ± 7.3,7.72 ± 0.84,19.6 ± 3.71,0.31 ± 0.04,4.04 ± 0.64,111.85 ± 12.49,103.88 ± 3.51,106.20 ± 9.09,108.58 ± 10.18,103.55 ± 8.34,99.35 ± 4.17,107.87 ± 4.07,100.75 ± 4.12,99.35–111.85,~3.7 times

# — publication PMC6100347, “Simultaneous Determination of Decursin, Decursinol Angelate, Nodakenin, and Decursinol of Angelica gigas Nakai in Human Plasma by UHPLC-MS/MS: Application to Pharmacokinetic Study” (Molecules : A Journal of Synthetic Chemistry and Natural …, 2018)
